Patent US9290511B2, “Thieno-pyrimidines, useful as potassium channel inhibitors” (XENTION LIMITED, priority 2011, dated 2016)

Target: T1, Kir3.1/3.4 (Rattus norvegicus, UniProt P48548+P63251)
T1 construct: expressed in transfected cells
T1 sequence (P63251 1-501): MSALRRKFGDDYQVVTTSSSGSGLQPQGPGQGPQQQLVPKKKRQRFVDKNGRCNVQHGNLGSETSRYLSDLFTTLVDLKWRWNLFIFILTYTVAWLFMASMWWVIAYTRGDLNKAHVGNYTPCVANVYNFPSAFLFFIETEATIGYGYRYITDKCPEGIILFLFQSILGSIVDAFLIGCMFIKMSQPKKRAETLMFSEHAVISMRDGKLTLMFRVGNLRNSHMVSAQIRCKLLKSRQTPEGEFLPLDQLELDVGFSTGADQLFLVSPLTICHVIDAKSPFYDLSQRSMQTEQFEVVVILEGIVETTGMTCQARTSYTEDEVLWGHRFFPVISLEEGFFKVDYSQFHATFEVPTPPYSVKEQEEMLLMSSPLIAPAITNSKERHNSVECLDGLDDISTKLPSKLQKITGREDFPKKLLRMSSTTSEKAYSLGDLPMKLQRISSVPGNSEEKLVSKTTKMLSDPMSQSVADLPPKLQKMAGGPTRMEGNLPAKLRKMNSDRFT
T1 sequence (P48548 1-419): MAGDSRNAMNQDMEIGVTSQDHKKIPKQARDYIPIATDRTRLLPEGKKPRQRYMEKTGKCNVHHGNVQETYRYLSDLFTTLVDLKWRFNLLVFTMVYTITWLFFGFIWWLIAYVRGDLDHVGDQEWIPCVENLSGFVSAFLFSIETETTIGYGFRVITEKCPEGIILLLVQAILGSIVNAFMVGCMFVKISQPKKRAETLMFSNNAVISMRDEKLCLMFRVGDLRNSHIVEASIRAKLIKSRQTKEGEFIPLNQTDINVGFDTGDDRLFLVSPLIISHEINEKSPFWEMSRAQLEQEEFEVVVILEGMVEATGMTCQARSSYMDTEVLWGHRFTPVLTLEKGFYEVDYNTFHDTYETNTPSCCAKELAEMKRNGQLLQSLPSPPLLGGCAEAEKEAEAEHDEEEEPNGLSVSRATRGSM
Test: Kir3.1/3.4 Electrophysiology Method (manual whole-cell patch clamp)
Format: cell-based
Conditions: Electrophysiology Method (TABLE 1)
In short: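 Manual whole-cell patch clamp on HEK293 cells stably expressing rat Kir3.1/3.4, with GTPγS in the pipette. Cells were held at −60 mV and stepped to +60 mV, then ramped to −140 mV every 10 s. Steady-state inhibition at −140 mV was measured after subtracting leak recorded in zero-K+ bath.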

Row | SMILES | IC50 [nM]
1 | CC(C)c1c(C(=O)N(C)C)sc2ncnc(N3CCC(COCCN4CCCC4)CC3)c12 [Example 133] | 500 to 3000
2 | CN1CCC(N(C)C(=O)C2CCCN(c3ncnc4scc(-c5ccccc5)c34)C2)C1 (centres unmarked) [Example 282] | 500 to 3000
3 | FC(F)(F)C1CCN(CC2CCN(c3ncnc4scc(-c5ccccc5)c34)CC2)CC1 [Example 99, 5-phenyl-4-[4-[[4-(trifluoromethyl)-1-piperidyl]methyl]-1-piperidyl]thieno[2,3-d]pyrimidine] | 500 to 3000
4 | CN(C)C1CCN(c2nc(N3CCC(O)C3)nc3scc(-c4ccccc4)c23)CC1 (centres unmarked) [Example 188] | 500 to 3000
5 | CNC(=O)CN(CC1CCN(c2ncnc3scc(-c4ccccc4)c23)CC1)C1CCC1 [Example 252, 2-[cyclobutyl-[[1-(5-phenylthieno[2,3-d]pyrimidin-4-yl)-4-piperidyl]methyl]amino]-N-methyl-acetamide] | 500 to 3000
6 | CN1CCCC1CCOCC1CCN(c2ncnc3sccc23)CC1 (centres unmarked) [Example 3, 4-[4-[2-(1-methylpyrrolidin-2-yl)ethoxymethyl]-1-piperidyl]thieno[2,3-d]pyrimidine] | 3000 to 10000
7 | CC(=O)N1CCCC1CCN(C)CC1CCN(c2ncnc3scc(-c4ccccc4)c23)CC1 (centres unmarked) [Example 89, 1-[2-[2-[methyl-[[1-(5-phenylthieno[2,3-d]pyrimidin-4-yl)-4-piperidyl]methyl]amino]ethyl]pyrrolidin-1-yl]ethanone] | 500 to 3000
8 | NC(=O)C1CCN(c2nc(N3CCOCC3)c3c(-c4ccccc4)csc3n2)C1 (centres unmarked) [Example 306] | 3000 to 10000
9 | CN1CCC(N(C)CC2CCN(c3ncnc4sc(C(=O)N(C)C)c(-c5ccccc5)c34)CC2)C1 (centres unmarked) [Example 136] | 500 to 3000
10 | CN(C)C1CCN(c2ncnc3scc(-c4ccccc4)c23)CC1 [Example 169] | 500 to 3000
11 | OC1CCN(c2nc(NCCN3CCCC3)nc3scc(-c4ccccc4)c23)C1 (centres unmarked) [Example 189] | 500 to 3000
12 | Fc1ccc(-c2csc3nc(N4CCC(COCCN5CCCC5)CC4)ncc23)cc1 [Example 152] | < 500
13 | c1ccc(-c2csc3nc(N4CCC(COCCN5CC6CC5CO6)CC4)ncc23)cc1 (centres unmarked) [Example 154] | < 500
14 | CN1CCN(c2nc(N3CCC(CNCCC4CCCN4C)CC3)c3c(-c4ccccc4)csc3n2)CC1 (centres unmarked) [Example 114] | 500 to 3000
15 | CCCNCC1CCN(c2ncnc3scc(-c4ccccc4)c23)CC1 [Example 51, N-[[1-(5-phenylthieno[2,3-d]pyrimidin-4-yl)-4-piperidyl]methyl]propan-1-amine] | 500 to 3000
16 | COc1ccccc1-c1csc2ncnc(N3C4CCC3CC(CNC3CCC3)C4)c12 (centres unmarked) [Example 367] | < 500
17 | CN(C)[C@@H]1CCN(CC2CCN(c3nc(N4CCC(C(N)=O)C4)nc4scc(-c5ccccc5)c34)CC2)C1 (some centres unmarked) [Example 236] | < 500
18 | c1ccc(-c2csc3ncnc(N4C5CCC4CC(N4CCC4)C5)c23)cc1 (centres unmarked) [Example 326] | < 500
19 | c1ccc(-c2csc3ncnc(N4CCC(CN5CCC(N6CCCCC6)C5)CC4)c23)cc1 (centres unmarked) [Example 218] | < 500
20 | CN1CC(N(C)CC2CCN(c3ncnc4scc(-c5ccccc5)c34)CC2)CC1=O (centres unmarked) [Example 250] | 500 to 3000
21 | c1sc2nc(N3CCC(COCCN4CCCC4)CC3)ncc2c1C1CCCCC1 [Example 283] | < 500
22 | CC(C)NC(=O)c1sc2ncnc(N3C4CCC3CC(COCCN3CCCC3)C4)c2c1-c1ccccc1 (centres unmarked) [Example 357] | < 500
23 | NC(=O)C1CCN(c2nc(N3CCC(COCCN4CCCC4)CC3)nc3scc(-c4ccccc4)c23)C1 (centres unmarked) [Example 274] | < 500
24 | COc1ncccc1-c1csc2ncnc(N3C4CCC3CC(N(C)C3CCC3)C4)c12 (centres unmarked) [Example 351, N-cyclobutyl-8-[5-(2-methoxy-3-pyridyl)thieno[2,3-d]pyrimidin-4-yl]-N-methyl-8-azabicyclo[3.2.1]octan-3-amine] | < 500
25 | c1cc2c(N3C4CCC3COC4)nc(N3CCC(COCCN4CCCC4)CC3)nc2s1 [Example 302] | < 500
26 | CC(C)NC(=O)c1sc2ncnc(N3CCC(COCCN4CCCC4)CC3)c2c1-c1cccc(F)c1 [Example 137] | < 500
27 | c1ccc(-c2csc3ncnc(N4CC[C@@H](COCCN5CCCC5)C4)c23)cc1 [Example 262] | < 500
28 | NC(=O)C1CCN(c2nc(N3C4CCC3CC(NC3CCC3)C4)c3c(-c4ccccc4)csc3n2)C1 (centres unmarked) [Example 337, 1-[4-[3-(cyclobutylamino)-8-azabicyclo[3.2.1]octan-8-yl]-5-phenyl-thieno[2,3-d]pyrimidin-2-yl]pyrrolidine-3-carboxamide] | 500 to 3000

Next, values leading:

Row | IC50 [nM] | SMILES
29 | < 500 | CN1CCC(NCC2CCN(c3ncnc4scc(-c5ccccc5)c34)CC2)CC1 [Example 97, 1-methyl-N-[[1-(5-phenylthieno[2,3-d]pyrimidin-4-yl)-4-piperidyl]methyl]piperidin-4-amine]
30 | < 500 | N#Cc1sc2ncnc(N3CCC(COCCN4CCCC4)CC3)c2c1-c1ccccc1 [Example 167, 5-phenyl-4-[4-(2-pyrrolidin-1-ylethoxymethyl)-1-piperidyl]thieno[2,3-d]pyrimidine-6-carbonitrile]
31 | < 500 | OCC1CCCN1CC1CCN(c2ncnc3scc(-c4ccccc4)c23)CC1 (centres unmarked) [Example 65, [1-[[1-(5-phenylthieno[2,3-d]pyrimidin-4-yl)-4-piperidyl]methyl]pyrrolidin-2-yl]methanol]
32 | < 500 | CN(CCC1CCCN1C)CC1CCN(c2ncnc3scc(-c4ccccc4)c23)CC1 (centres unmarked) [Example 101]
33 | < 500 | FC(F)(F)Oc1cccc(-c2csc3ncnc(N4CCC(COCCN5CCCC5)CC4)c23)c1 [Example 313]
34 | < 500 | CN1CCC(N(C)CC2CCN(c3nc(N4CC(C(N)=O)C4)nc4scc(-c5ccccc5)c34)CC2)C1 (centres unmarked) [Example 237]
35 | < 500 | c1ccc(-c2csc3ncnc(N4CCC(CNCCC5CC5)CC4)c23)cc1 [Example 103]
36 | < 500 | CN1CCC(N(C)CC2CCN(c3ncnc4scc(-c5ccccc5)c34)CC2)C1 (centres unmarked) [Example 202]
37 | < 500 | Fc1ccc(C2CCN(CC3CCN(c4ncnc5scc(-c6ccccc6)c45)CC3)C2)cc1 (centres unmarked) [Example 70, 4-[4-[[3-(4-fluorophenyl)pyrrolidin-1-yl]methyl]-1-piperidyl]-5-phenyl-thieno[2,3-d]pyrimidine]
38 | < 500 | c1ccc(-c2csc3ncnc(N4CCC(CNCc5cccs5)CC4)c23)cc1 [Example 69, N-[[1-(5-phenylthieno[2,3-d]pyrimidin-4-yl)-4-piperidyl]methyl]-1-(2-thienyl)methanamine]
39 | < 500 | c1ccc(-c2csc3ncnc(N4CCC(CNCC5CC5)CC4)c23)cc1 [Example 49, 1-cyclopropyl-N-[[1-(5-phenylthieno[2,3-d]pyrimidin-4-yl)-4-piperidyl]methyl]methanamine]
40 | < 500 | CC(C)N1CCCC1CCN(C)CC1CCN(c2ncnc3scc(-c4ccccc4)c23)CC1 (centres unmarked) [Example 88, 2-(1-isopropylpyrrolidin-2-yl)-N-methyl-N-[[1-(5-phenylthieno[2,3-d]pyrimidin-4-yl)-4-piperidyl]methyl]ethanamine]
41 | < 500 | c1nc(N2CCC(COCCN3CCCC3)CC2)c2c(-c3ccc4c(c3)OCO4)csc2n1 [Example 319]
42 | < 500 | CCc1c(C)sc2ncnc(N3CCC(COCCC4CCCN4C)CC3)c12 (centres unmarked) [Example 24, 5-ethyl-6-methyl-4-[4-[2-(1-methylpyrrolidin-2-yl)ethoxymethyl]-1-piperidyl]thieno[2,3-d]pyrimidine]
43 | < 500 | CC(=O)N1CCN(CCOCC2CCN(c3ncnc4scc(-c5ccccc5)c34)CC2)CC1 [Example 261]
44 | < 500 | CC(C)NCC1CCN(c2ncnc3scc(-c4ccccc4)c23)CC1 [Example 187]
45 | < 500 | CC(C)CC(=O)Nc1sc2nc(N3CCC(COCCN4CCCC4)CC3)ncc2c1-c1ccccc1 [Example 303]
46 | < 500 | c1ccc(-c2csc3ncnc(N4CC5CC4CC5OCCN4CCCC4)c23)cc1 (centres unmarked) [Example 284]
47 | < 500 | CN(CC1CCN(c2ncnc3scc(-c4ccccc4)c23)CC1)C1CCC1 [Example 251]
48 | < 500 | CCc1c(C)sc2ncnc(N3CCC(COCCN4CCOCC4)CC3)c12 [Example 23, 4-[2-[[1-(5-ethyl-6-methyl-thieno[2,3-d]pyrimidin-4-yl)-4-piperidyl]methoxy]ethyl]morpholine]
49 | < 500 | CN(C)C1CCCN(CC2CCCN(c3ncnc4scc(-c5ccccc5)c34)C2)C1 (centres unmarked) [Example 208]
50 | < 500 | CC(C)(C)OC(=O)N1CCCC1CCNCC1CCN(c2ncnc3scc(-c4ccccc4)c23)CC1 (centres unmarked) [Example 82, tert-butyl 2-[2-[[1-(5-phenylthieno[2,3-d]pyrimidin-4-yl)-4-piperidyl]methylamino]ethyl]pyrrolidine-1-carboxylate]
